Earlier results in patent US9066886B2, “Transdermal drug delivery system containing granisetron” (TAHO PHARMACEUTICALS, LTD., priority 2008, dated 2015).

Details: tablet with 1 mg of granisetron; from Korean Patent Laid-Open Publication No. 10-2005-0116365

Cmax: 3.6 ng/mL
SMILES: CN1C2CCCC1CC(NC(=O)c1nn(C)c3ccccc13)C2 (stereo not shown) [granisetron]
